From patent US20110070232A1, “Combination Therapy with an Antitumor Alkaloid” (Pharma Mar, S.A., priority 2008, published 2011)
Read-outs that look alike come from different tables or passages of the source.

Assays:
Assay type in all cases: in vivo, mice
[1] = system: SK-OV-3 tumors; details: for % Inhibition: PM00104 0.9 mg/kg/day, single agents and combination, r5-r14 = day 14,17,21,24,29,32,36,43,50,57
Source text: Female athymic nude mice (Harlan Sprague Dawley, Madison, Wis.) were utilized for all experiments. Animals were housed in ventilated rack caging with food and water ad libitum. The mice were acclimated for at least 5 days prior to tumor implantation with tumor fragments.
The tumor model used in these studies was SK-OV-3 cell line, which was obtained from the ATCC (Manassas, Va.).
SK-OV-3 fragments were removed from donor animals and tissue was debrided of membrane and any hemorrhagic and necrotic areas and 3-4 mm^3 fragments, from in vivo passage 2, were implanted SC on the right flank of each animal, using a 13G trochar. Bacterial culture was taken on cells used to implant the study.
Treatments were initiated on DPI 14.
(§1) Tumor size measurements were recorded twice weekly from the treatment initiation until the termination of the study.
(§2) Mean, standard deviation and standard error of the mean were determined for tumor volume for all animal groups at all assessments. Student's t test was performed on tumor volumes at each measurement day, including at the end of the study, to determine whether there were any statistically significant differences between combination treatment groups and single monotherapy treatment groups.

[2] = system: HepG2 tumors
Experimental: Female athymic nude mice (Harlan Sprague Dawley, Madison, Wis.) were utilized for all experiments. Animals were housed in ventilated rack caging with food and water ad libitum. The mice were acclimated for at least 5 days prior to tumor implantation with a tumor cell suspension.
The tumor model used in these studies was HepG2 cell line, which was obtained from the ATCC (Manassas, Va.).
HepG2 cells were grown in MEM supplemented with 10% FBS, 1.5 g/L sodium bicarbonate, 0.1 mM non-essential amino acids, 1.0 mM sodium pyruvate, and 2 mM L-glutamine. Each animal was implanted SC on the right flank, using a 13G trochar, with 5×10^6 HepG2 cells in a 0.2 mL suspension of 50% Matrigel and 50% serum free medium, without antibiotics. Bacterial cultures were performed on aliquots of the cells prepared for implantation.
Treatments were initiated on DPI 19.
as §1, §2

[3] = system: H-Meso-1 tumors; details: G2 PM00104 0.9 mg/kg/day IV
Experimental: (§3) Female athymic nude mice (Harlan Sprague Dawley, Madison, Wis.) were utilized for all experiments. Animals were housed in ventilated rack caging with food and water ad libitum. The mice were acclimated for at least 5 days prior to tumor implantation.
The tumor model used in this study was H-Meso-1 cell line which is a human mesothelioma cell line obtained from the DTP, DCTD tumor repository. […] Cells were implanted SC into study mice using a 1 ml syringe with a 13G trocar: 5×10^6 cells/mouse in 0.2 ml 50% Matrigel/50% RPMI medium of H-Meso-1 without serum or antibiotics. Bacterial culture was taken on cells used to implant the study.
Treatments were initiated on DPI 6.
(§4) Tumor size measurements were recorded 2-3 times/week from the treatment initiation until the termination of the study.
as §2

[4] = system: NCI-H460 tumors; details: G2 PM00104 0.9 mg/kg/day IV
Source text: as §3
The tumor model used in this study was NCI-H460 cell line which is a human lung cell line obtained from the ATCC (Manassas, Va.). […] Cells from in vitro passage 16 were those implanted SC into study mice.
Treatments were initiated on DPI 8.
as §4, §2

[5] = system: CaLu-6 tumors; details: G2 PM00104 0.9 mg/kg/day IV
Source text: as §3
The tumor model used in this study was CaLu-6 cell line which is a human lung cell line obtained from the ATCC (Manassas, Va.). […] Cells from in vitro passage 10 were those implanted SC into study mice.
Treatments were initiated on DPI 9.
as §4, §2

[6] = PM00104 0.90 mg/kg/day IV and/or Bevacizumab 5 mg/kg/day IP
[7] = day 19, PM00104 0.60, sorafenib 60 mg/kg/day
[8] = day 19, PM00104 0.90, sorafenib 60 mg/kg/day
[9] = day 22, PM00104 0.60, sorafenib 60 mg/kg/day
[10] = day 22, PM00104 0.90, sorafenib 60 mg/kg/day
[11] = day 26, PM00104 0.60, sorafenib 60 mg/kg/day
[12] = day 26, PM00104 0.90, sorafenib 60 mg/kg/day
[13] = day 30, PM00104 0.60, sorafenib 60 mg/kg/day
[14] = day 30, PM00104 0.90, sorafenib 60 mg/kg/day
[15] = day 33, PM00104 0.60, sorafenib 60 mg/kg/day
[16] = day 33, PM00104 0.90, sorafenib 60 mg/kg/day

COc1c(C)cc2c(c1O)[C@@H]1[C@@H]3Cc4c(OC(C)=O)c(C)c5c(c4[C@H](CNC(=O)/C=C/c4cccc(C(F)(F)F)c4)N3[C@@H](O)[C@H](C2)N1C)OCO5 [PM00104]
% T/C on day 14 [1, 6]: 100.9% | % T/C on day 17 [1, 6]: 87.6% | % T/C on day 21 [1, 6]: 79.4% | % T/C on day 24 [1, 6]: 78.8% | % T/C on day 29 [1, 6]: 73.5% | % T/C on day 32 [1, 6]: 73.1% | % T/C on day 36 [1, 6]: 72.7% | % T/C on day 43 [1, 6]: 81.5% | % T/C on day 50 [1, 6]: 93.8% | % T/C on day 57 [1, 6]: 100.4% | % Inhibition ([1]; bevacizumab 5 mg/kg/day): 27.3% | % Inhibition ([1]; bevacizumab […]): 27.3% | % Inhibition ([2]; day 19, PM00104 0.60, sorafenib 30 mg/kg/day): 8.4% | % Inhibition [2, 7]: 8.4% | % T/C [2, 7]: 91.6% | % Inhibition ([2]; day 19, PM00104 0.90, sorafenib 30 mg/kg/day): 8.5% | % Inhibition [2, 8]: 8.5% | % T/C [2, 8]: 91.5% | % Inhibition ([2]; day 22, PM00104 0.60, sorafenib 30 mg/kg/day): 28.1% | % Inhibition [2, 9]: 28.1% | % T/C [2, 9]: 71.9% | % Inhibition ([2]; day 22, PM00104 0.90, sorafenib 30 mg/kg/day): 40.3% | % Inhibition [2, 10]: 40.3% | % T/C [2, 10]: 59.7% | % Inhibition ([2]; day 26, PM00104 0.60, sorafenib 30 mg/kg/day): 48.3% | % Inhibition [2, 11]: 48.3% | % T/C [2, 11]: 51.7% | % Inhibition ([2]; day 26, PM00104 0.90, sorafenib 30 mg/kg/day): 59.5% | % Inhibition [2, 12]: 59.5% | % T/C [2, 12]: 40.5% | % Inhibition ([2]; day 30, PM00104 0.60, sorafenib 30 mg/kg/day): 59.2% | % Inhibition [2, 13]: 59.2% | % T/C [2, 13]: 40.8% | % Inhibition ([2]; day 30, PM00104 0.90, sorafenib 30 mg/kg/day): 76.1% | % Inhibition [2, 14]: 76.1% | % T/C [2, 14]: 23.9% | % Inhibition ([2]; day 33, PM00104 0.60, sorafenib 30 mg/kg/day): 62.4% | % Inhibition [2, 15]: 62.4% | % T/C [2, 15]: 37.6% | % Inhibition ([2]; day 33, PM00104 0.90, sorafenib 30 mg/kg/day): 73.0% | % Inhibition [2, 16]: 73.0% | % T/C [2, 16]: 27.0% | % T/C on day 6 [3]: 98.5% | % T/C on day 7 [3]: 80.3% | % T/C on day 9 [3]: 69.7% | % T/C on day 12 [3]: 63.3% | % T/C on day 14 [3]: 62.9% | % T/C on day 16 [3]: 62.1% | % T/C on day 19 [3]: 55.1% | % T/C on day 22 [3]: 51.6% | % T/C on day 26 [3]: 56.0% | % T/C on day 29 [3]: 64.9% | % Inhibition ([3]; day 6): 1.5% | % Inhibition ([3]; day 7): 19.7% | % Inhibition ([3]; day 9): 30.3% | % Inhibition ([3]; day 12): 36.7% | % Inhibition ([3]; day 14): 37.1% | % Inhibition ([3]; day 16): 37.9% | % Inhibition ([3]; day 19): 44.9% | % Inhibition ([3]; day 22): 48.4% | % Inhibition ([3]; day 26): 44.0% | % Inhibition ([3]; day 29): 35.0% | % T/C on day 8 [4]: 101.5% | % T/C on day 10 [4]: 86.5% | % T/C on day 13 [4]: 48.5% | % T/C on day 16 [4]: 49.0% | % T/C on day 20 [4]: 47.2% | % T/C on day 23 [4]: 63.0% | % T/C on day 28 [4]: 61.9% | % T/C on day 31 [4]: 81.7% | % Inhibition ([4]; day 8): −1.5% | % Inhibition ([4]; day 10): 13.5% | % Inhibition ([4]; day 13): 51.5% | % Inhibition ([4]; day 16): 51.0% | % Inhibition ([4]; day 20): 52.8% | % Inhibition ([4]; day 23): 37.0% | % Inhibition ([4]; day 28): 38.1% | % Inhibition ([4]; day 31): 18.3% | % T/C on day 9 [5]: 104.1% | % T/C on day 13 [5]: 106.0% | % T/C on day 16 [5]: 111.4% | % T/C on day 20 [5]: 115.4% | % T/C on day 27 [5]: 93.9% | % T/C on day 30 [5]: 80.3% | % T/C on day 34 [5]: 81.5% | % T/C on day 42 [5]: 77.2% | % Inhibition ([5]; day 9): −4.1% | % Inhibition ([5]; day 13): −6.0% | % Inhibition ([5]; day 16): −11.4% | % Inhibition ([5]; day 20): −15.4% | % Inhibition ([5]; day 23): −16.8% | % Inhibition ([5]; day 27): 6.1% | % Inhibition ([5]; day 30): 19.7% | % Inhibition ([5]; day 34): 18.5% | % Inhibition ([5]; day 42): 22.8%
